# Results as given in patent US11813305B2, “Endoplasmic reticulum stress as a predictive tool in cancer therapy and a combination therapy for the treatment of cancer” (IMMUNE SYSTEM KEY LTD., priority 2016, dated 2023).
# Square brackets hold non-standard residues; d marks the D form. Peptide text beside a SMILES is read from it.
# How the values were obtained:
# [1] = tested on: healthy human peripheral immune cells; format: cell-based; conditions: data not shown
# Excerpt: Therefore, without wishing to be bound by theory, dTCApFs appears to selectively affect cancer cells.
# [2] = human, in vivo
# Description: (§1) The dose escalation study followed a traditional “3+3” scheme and included doses of 6, 12, 24, 48, and 96 mg/m^2 intravenous (i.v.) dTCApFs, 3 times/week in consecutive 28-day cycles. In all 3-patient cohorts, there were 2-4 weeks between the first dose for the first and second patients, and ≥1 week for the third patient. New dose levels started after follow up of ≥28 days for 3 patients at the previous level. MTD was defined as the highest dose level at which ≥1 of 3 subjects experience a DLT during their first cycle of treatment. […] In addition, PK parameters, including area under the curve (AUC), maximal plasma concentration (Cmax), and plasma half-life (t1/2) were determined. PK parameters were estimated using non-compartmental models.
# (§2) dTCApFs powder for solution for injection is supplied as a lyophilized 5 mL vial containing either 15 mg (7.5 mg/mL) or 10 mL vial containing 80 mg (40 mg/mL) of the active substance with 4.8% mannitol, for reconstitution to a final volume of 2 mL with water for injection per vial as described above. The reconstituted 2 mL vial of dTCApFs powder for solution for injection must thereafter be diluted to a final volume 100 mL in aqueous Dextrose 5% for infusion for dose levels up to and including 48 mg/m2. For dose levels above 48 mg/m2, the final dilution volume was 250 mL. dTCApFs for injection was administered intravenously (iv) during 60 minutes.
# (§3) PK parameters, including AUC (0-24), Cmax, Cmin, Tmax and t1/2 are estimated using non-compartmental models. Comparisons across dose levels are made to assess proportionality.
# [3] = Pharmacokinetics of dTCApFs, phase I dose escalation study, i.v. 3 times/week; conditions: human, plasma
# Description: as §1, §2, §3
smiles,measurement,setting,value
"CC(C)C[C@@H](NC(=O)[C@H](NC(=O)[C@@H](CO)NC(=O)[C@H]1CCCN1C(=O)[C@@H](CC(C)C)NC(=O)[C@@H](Cc1ccccc1)NC(=O)[C@@H](Cc1ccccc1)NC(=O)[C@H](NC(=O)[C@@H](Cc1c[nH]c2ccccc12)NC(=O)[C@H](N)Cc1c[nH]c2ccccc12)[C@H](C)O)[C@H](C)O)C(=O)N[C@H](Cc1c[nH]c2ccccc12)C(=O)N[C@H](CCC(=O)O)C(=O)N[C@H](CCCNC(=N)N)C(=O)N[C@H](CCCCN)C(=O)O [dTCApFs, Trp Trp Thr Phe Phe Leu Pro Ser Thr Leu Trp Glu Arg Lys] (H-[dW][dW][dT][dF][dF][dL][dP][dS][dT][dL][dW][dE][dR][dK]-OH; N-terminus and C-terminus assumed)",cell death,[1],only minor cell death occurred
same,"relation of t1/2, Cmax and AUC0 to dose",[2],linearly related to dose
same,Cmax,"[3]; intravenous, 12 mg/m^2, Cmax, Cycle 2, Day 1, 12 mg/m^2, n = 4",6050 ng/mL
same,Cmax,"[3]; intravenous, 24 mg/m^2, Cmax, Cycle 2, Day 1, 24 mg/m^2, n = 4",14600 ng/mL
same,AUC,"[3]; intravenous, 96 mg/m^2, AUC0, Cycle 2, Day 1, 96 mg/m^2, n = 3",295000 ng·h/mL
same,AUC,"[3]; iv, 6 mg/m2, AUC0, Cycle 1, Day 1, 6 mg/m^2, n = 3",3810 ng·h/mL
same,AUC,"[3]; iv, 6 mg/m2, AUC0, Cycle 2, Day 1, 6 mg/m^2, n = 3",9720 ng·h/mL
same,Cmax,"[3]; iv, 6 mg/m2, Cmax, Cycle 1, Day 1, 6 mg/m^2, n = 3",1210 ng/mL
same,Cmax,"[3]; iv, 6 mg/m2, Cmax, Cycle 2, Day 1, 6 mg/m^2, n = 3",1540 ng/mL
same,half-life,"[3]; iv, 6 mg/m2, T1/2, Cycle 1, Day 1, 6 mg/m^2, n = 3",2.3 h
same,half-life,"[3]; iv, 6 mg/m2, T1/2, Cycle 2, Day 1, 6 mg/m^2, n = 3",2.8 h
same,AUC,"[3]; iv, 12 mg/m2, AUC0, Cycle 1, Day 1, 12 mg/m^2, n = 4",12900 ng·h/mL
same,AUC,"[3]; iv, 12 mg/m2, AUC0, Cycle 2, Day 1, 12 mg/m^2, n = 4",11500 ng·h/mL
same,Cmax,"[3]; iv, 12 mg/m2, Cmax, Cycle 1, Day 1, 12 mg/m^2, n = 4",6050 ng/mL
same,half-life,"[3]; iv, 12 mg/m2, T1/2, Cycle 1, Day 1, 12 mg/m^2, n = 4",2.1 h
same,half-life,"[3]; iv, 12 mg/m2, T1/2, Cycle 2, Day 1, 12 mg/m^2, n = 4",2 h
same,AUC,"[3]; iv, 24 mg/m2, AUC0, Cycle 1, Day 1, 24 mg/m^2, n = 4",49600 ng·h/mL
same,AUC,"[3]; iv, 24 mg/m2, AUC0, Cycle 2, Day 1, 24 mg/m^2, n = 4",57100 ng·h/mL
same,Cmax,"[3]; iv, 24 mg/m2, Cmax, Cycle 1, Day 1, 24 mg/m^2, n = 4",14600 ng/mL
same,half-life,"[3]; iv, 24 mg/m2, T1/2, Cycle 1, Day 1, 24 mg/m^2, n = 4",3.2 h
same,half-life,"[3]; iv, 24 mg/m2, T1/2, Cycle 2, Day 1, 24 mg/m^2, n = 4",3.7 h
same,AUC,"[3]; iv, 48 mg/m2, AUC0, Cycle 1, Day 1, 48 mg/m^2, n = 4",79900 ng·h/mL
same,AUC,"[3]; iv, 48 mg/m2, AUC0, Cycle 2, Day 1, 48 mg/m^2, n = 4",100000 ng·h/mL
same,Cmax,"[3]; iv, 48 mg/m2, Cmax, Cycle 1, Day 1, 48 mg/m^2, n = 4",18300 ng/mL
same,Cmax,"[3]; iv, 48 mg/m2, Cmax, Cycle 2, Day 1, 48 mg/m^2, n = 4",22100 ng/mL
same,half-life,"[3]; iv, 48 mg/m2, T1/2, Cycle 1, Day 1, 48 mg/m^2, n = 4",4.9 h
same,half-life,"[3]; iv, 48 mg/m2, T1/2, Cycle 2, Day 1, 48 mg/m^2, n = 4",4.6 h
same,AUC,"[3]; iv, 96 mg/m2, AUC0, Cycle 1, Day 1, 96 mg/m^2, n = 3",207000 ng·h/mL
same,Cmax,"[3]; iv, 96 mg/m2, Cmax, Cycle 1, Day 1, 96 mg/m^2, n = 3",33000 ng/mL
same,Cmax,"[3]; iv, 96 mg/m2, Cmax, Cycle 2, Day 1, 96 mg/m^2, n = 3",32000 ng/mL
same,half-life,"[3]; iv, 96 mg/m2, T1/2, Cycle 1, Day 1, 96 mg/m^2, n = 3",6 h
same,half-life,"[3]; iv, 96 mg/m2, T1/2, Cycle 2, Day 1, 96 mg/m^2, n = 3",8.5 h
